# Measurements taken from US20140116434A1, “Dry Powder Inhaler Compositions” (GLAXO GROUP LIMITED, priority 2011, published 2014).
# Experiments:
# [1] = format: in vivo, animal and human
# asthmatic patients = assay: clinical pharmacology studies of the compound of formula (II) in asthmatic patients; format: in vivo, human; settings: all doses tested
# Description: The compound of formula (II) as the α-phenylcinnamate salt and the triphenylacetate salt has been studied in a number of clinical pharmacology studies, including single- and repeat-dose studies. In addition, these studies have evaluated the compound of formula (II) formulated with lactose and either cellobiose octaacetate or magnesium stearate.
# pre-clinical models = assay: duration of action in vivo, administered directly to the lungs in pre-clinical models; design: species or system animals
# human M3 receptor = human M3 receptor (Homo sapiens, UniProt P20309); assay: reversibility at the human M3 receptor in vitro; format: binding
# [2] = tested on: healthy volunteers and COPD patients; assay: clinical pharmacology studies, single inhaled doses, plethysmography (sGaw, Raw) and spirometry (FEV1); format: in vivo, human
# Procedure: Several clinical pharmacology studies have been conducted using 4-[hydroxy(diphenyl)methyl]-1-{2-[(phenylmethyl)oxy]ethyl}-1-azoniabicyclo[2.2.2]octane bromide in both healthy volunteers and COPD patients to investigate the safety, tolerability, pharmacokinetics and pharmacodynamics of this compound. The bronchodilatory effects and duration of action of single inhaled doses of this compound as measured by plethysmography (sGaw, Raw) and spirometry (FEV1) were assessed in some of the above noted studies.
# muscarinic receptor = muscarinic receptor antagonism, studies in animal models and in humans
# [3] = tested on: healthy Japanese volunteers; assay: single inhaled dose four-way crossover study, monotherapies and combination; format: in vivo, human; settings: single inhaled doses, 500 mcg and/or 50 mcg
# Description: A combination of 4-[hydroxy(diphenyl)methyl]-1-{2-[(phenylmethyl)oxy]ethyl}-1-azoniabicyclo[2.2.2]octane bromide and the compound of formula (II) as the triphenylacetate salt has been administered to sixteen healthy Japanese volunteers, aged 20 to 65, as part of a clinical trial to assess the safety, tolerability, pharmacokinetics and pharmacodynamics of single inhaled doses of 4-[hydroxy(diphenyl)methyl]-1-{2-[(phenylmethyl)oxy]ethyl}-1-azoniabicyclo[2.2.2]octane bromide and the compound of formula (II) triphenylacetate as monotherapies and in combination. […]
# This clinical study in healthy Japanese volunteers, evaluated the effect of 4-[hydroxy(diphenyl)methyl]-1-{2-[(phenylmethyl)oxy]ethyl}-1-azoniabicyclo[2.2.2]octane bromide (500 mcg dose) and the compound of formula (II) triphenylacetate (50 mcg dose) administered as single inhaled doses and concurrently (4-[hydroxy(diphenyl)methyl]-1-{2-[(phenylmethyl)oxy]ethyl}-1-azoniabicyclo[2.2.2]octane bromide (500 mcg dose) and the compound of formula (II) triphenylacetate (50 mcg dose)) on lung function parameters. […] In this study FEV1 values were recorded. […]
# subjects with COPD [4] = assay: 14-day once-daily study in subjects with COPD; format: in vivo, human; settings: 14-day treatment period
# Description: In addition, this study confirmed that 4-[hydroxy(diphenyl)methyl]-1-{2-[(phenylmethyl)oxy]ethyl}-1-azoniabicyclo[2.2.2]octane bromide has a once-daily profile.
# subjects with COPD [5] = assay: 28 day once-daily dry powder inhaler study in subjects with COPD; format: in vivo, human; settings: 125, 250 and 500 mcg once-daily, 28 day period
# Description: A further study evaluated the efficacy and safety of three doses (125 mcg, 250 mcg and 500 mcg) of 4-[hydroxy(diphenyl)methyl]-1-{2-[(phenylmethyl)oxy]ethyl}-1-azoniabicyclo[2.2.2]octane bromide administered once-daily via a dry powder inhaler over a 28 day period in subjects with COPD.
# [6] = tested on: subjects with persistent uncontrolled asthma; assay: 8 week randomised, double-blind, placebo-controlled study in persistent uncontrolled asthma; format: in vivo, human
# Procedure: In one such study, the safety and efficacy of four doses of 6α,9α-difluoro-17α-[(2-furanylcarbonyl)oxy]-11β-hydroxy-16α-methyl-3-oxo-androsta-1,4-diene-17β-carbothioic acid S-fluoromethyl ester (fluticasone furoate) in subjects with persistent uncontrolled asthma were evaluated. In this study, which was a randomised, double-blind, placebo-controlled, parallel group study, 598 patients received one of six treatments: fluticasone furoate (25, 50, 100 or 200 mcg) once daily, fluticasone propionate 100 mcg twice daily or placebo for 8 weeks. The primary endpoint was change from baseline in trough (pre-dose) forced expiratory volume in 1 second (FEV1) at Week 8. […] This study supports the use of fluticasone furoate (100 or 200 mcg once-daily) for the treatment of persistant uncontrolled asthma.
# Sequence of human M3 receptor (P20309 whole entry): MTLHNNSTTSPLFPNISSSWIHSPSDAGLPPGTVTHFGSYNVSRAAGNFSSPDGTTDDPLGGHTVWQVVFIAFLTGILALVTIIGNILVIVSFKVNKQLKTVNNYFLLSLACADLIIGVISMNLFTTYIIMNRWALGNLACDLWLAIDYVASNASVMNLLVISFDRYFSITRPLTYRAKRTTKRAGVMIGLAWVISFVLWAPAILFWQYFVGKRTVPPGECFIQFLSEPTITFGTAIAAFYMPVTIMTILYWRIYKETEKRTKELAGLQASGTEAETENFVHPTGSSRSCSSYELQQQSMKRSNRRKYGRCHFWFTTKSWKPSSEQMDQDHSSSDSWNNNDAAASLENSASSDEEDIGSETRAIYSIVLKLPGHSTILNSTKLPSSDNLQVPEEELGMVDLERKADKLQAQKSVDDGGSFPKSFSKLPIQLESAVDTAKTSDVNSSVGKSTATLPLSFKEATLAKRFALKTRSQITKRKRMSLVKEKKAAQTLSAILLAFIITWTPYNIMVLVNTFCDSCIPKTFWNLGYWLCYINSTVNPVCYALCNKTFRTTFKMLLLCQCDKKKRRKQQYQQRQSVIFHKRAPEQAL
structure (smiles),measurement,setting,value
"OCc1cc([C@@H](O)CNCCCCCCOCCOCc2c(Cl)cccc2Cl)ccc1O [compound of formula (II), 4-{(1R)-2-[(6-{2-[(2,6-dichlorobenzyl)oxy]ethoxy}hexyl)amino]-1-hydroxyethyl}-2-(hydroxymethyl)phenol]",bronchodilation,[1]; animal and human studies,sustained bronchodilation over a 24 hour period
same,safety profile,[1]; in vivo,favourable safety profile
same,trough (24-hour) FEV1 compared to placebo,asthmatic patients,statistically and clinically significant improvement
OC(c1ccccc1)(c1ccccc1)C12CC[N+](CCOCc3ccccc3)(CC1)CC2.[Br-] [4-[hydroxy(diphenyl)methyl]-1-{2-[(phenylmethyl)oxy]ethyl}-1-azoniabicyclo[2.2.2]octane bromide],duration of action in vivo,pre-clinical models,long duration of action
same,reversibility at the human M3 receptor,human M3 receptor,slow reversibility
same,"bronchodilatory effects (sGaw, Raw, FEV1)",[2],clinically relevant bronchodilation
same,duration of action,[2],24 h
same,muscarinic receptor antagonist profile,muscarinic receptor,long acting high-affinity pan-active muscarinic receptor antagonist
same,tolerability,[3]; dry powder inhalers,well tolerated
same,FEV1 values compared with placebo,[3],higher
same,pulmonary function compared to placebo,"subjects with COPD [4]; 62.5, 125, 250, 500 and 1000 mcg once-daily",statistically significant improvements
same,trough FEV1 compared with open label tiotropium active control (18 mcg once-daily),subjects with COPD [4]; all once-daily doses,numerically greater improvement
same,bronchodilation,subjects with COPD [5],significant bronchodilation over twenty four hours
same,safety,subjects with COPD [5],safe
"C[C@@H]1C[C@H]2[C@@H]3C[C@H](F)C4=CC(=O)C=C[C@]4(C)[C@@]3(F)[C@@H](O)C[C@]2(C)[C@@]1(OC(=O)c1ccco1)C(=O)SCF [fluticasone furoate, 6α,9α-difluoro-17α-[(2-furanylcarbonyl)oxy]-11β-hydroxy-16α-methyl-3-oxo-androsta-1,4-diene-17β-carbothioic acid S-fluoromethyl ester]",change from baseline in trough FEV1 relative to placebo,"[6]; 50-200 mcg once daily, Week 8, p<0.05",significantly greater increases
same,increase in trough FEV1 from baseline relative to placebo,"[6]; 100 mcg and 200 mcg once daily, Week 8",> 200 mL
